Values of other authors as cited in US20110178470A1, “PHARMACEUTICAL COMPOSITIONS COMPRISING BORONIC ACID COMPOUNDS” (DR. REDDY'S LABORATORIES LTD., priority 2008, published 2011).

Settings: as the monomeric boronic acid; pH range of 2 to 6.5

In the case of `CC(C)C[C@H](NC(=O)[C@H](Cc1ccccc1)NC(=O)c1cnccn1)B(O)O` [bortezomib, [(1R)-3-methyl-1-[[(2S)-1-oxo-3-phenyl-2-[(pyrazinylcarbonyl)amino]propyl]amino]butyl]boronic acid], the solubility in water is listed as 3300 to 3800 µg/mL.
